# How the values were obtained:
# Assay type in all cases: cell-based, human
# ovarian cancer stem cell = assay: Mitochondrial function assessment (JC1 dye, MitoSox dye, ApoSENSOR ADP/ATP kit); settings: overall conclusion of Example 1
# Description: (§1) A panel of CD44+/MYD88+ epithelial ovarian cancer (EOC) stem cells was treated with compound 1 (10 μg/mL) at designated times. CD44+/MYD88+ ovarian cancer stem cells are isolated from either tumor tissue or ascites obtained from patients diagnosed with stage III/IV serous ovarian carcinoma. Mitochondrial function was assessed using the JC1 dye (Biovision Inc), MitoSox dye (Invitrogen), and ApoSENSOR ADP/ATP kit (Biovision Inc.). Protein levels were determined using Western blot analysis. […] The impact of compound 1 on energy production was examined by measuring ADP and ATP levels. […] The stem cells were treated with increasing with compound 1 (10 μg/mL) at times points shown.
# [1] = test system: CD44+/MYD88+ epithelial ovarian cancer (EOC) stem cells; assay: ApoSENSOR ADP/ATP ratio assay kit, ATP and ADP levels
# Description: FIG. 2 illustrates the levels of ATP and ADP measured at designated times using Apo-SENSOR ADP/ATP ratio assay kit. […] (p<0.0001 compared to control)
# FIG. 7. Compound 1-induced loss of ATP leads to mTor inhibition. EOC stem cells were treated with compound 1 in the presence of 10% FBS. FIG. 7 illustrates the levels of ATP and ADP measured at designated times using ApoS-SENSOR ADP/ATP ratio assay kit. # p<0.001 compared to compound 1 alone.
# as §1
# (§2) EOC stem cells were treated with compound 1 in the presence of 10% fetal bovine serum (FBS).
# EOC stem cells [2] = assay: Western blot analysis of mitochondrial fractions, Bax
# Description: FIG. 6. Western blot analysis using mitochondrial fractions illustrates the effect on mitochondrial Bax. U0126 inhibited compound 1-induced loss of mitochondrial membrane potential and mitochondrial translocation of Bax (member of the proapoptotic Bcl2 family).
# (§3) Inhibitory studies were done using the specific MEK inhibitor U0126 (10 μM) or the ROS scavenger, MnTBAP (500 μM). EOC stem cells were treated with compound 1 in the presence or absence of the ROS scavenger, MnTBAP (Alexis Biochemicals). […] (FIG. 4) EOC stem cells were treated with compound 1 in the presence or absence of the MEK inhibitor, U0126 (Sigma Aldrich). EOC stem cells were pre-treated with U0126 (10 μM) for 1 hour before treatment with compound 1. Flow cytometry analysis using JC1 green fluorescence illustrates the effect of compound 1 on mitochondrial membrane potential. Pretreatment with U0126 reduced the percentage of cells that lost mitochondrial membrane potential (59% vs 23% for compound 1 along and compound 1 with U0126, respectively) (FIG. 5). The mitochondrial fractions of cells treated with compound 1 in the presence or absence of U0126 were analyzed. […] (FIG. 6)
# EOC stem cells [3] = assay: Flow cytometry with JC1 dye, mitochondrial membrane potential
# Description: FIG. 5. EOC stem cells were treated with compound 1 in the presence or absence of the MEK inhibitor, U0126. Flow cytometry analysis using JC1 dye illustrates the effect on mitochondrial membrane potential (MMP). FIG. 5 illustrates that inhibition of ERK with U0126 is able to reverse the effect of compound 1 on MMP.
# as §1
# Inhibitory studies were done using the specific MEK inhibitor U0126 (10 μM) or the ROS scavenger, MnTBAP (500 μM). […] Flow cytometry analysis using JC1 green fluorescence illustrates the effect of compound 1 on mitochondrial membrane potential. […] The mitochondrial fractions of cells treated with compound 1 in the presence or absence of U0126 were analyzed. […]
# EOC stem cells [4] = assay: Western blot analysis of protein levels (Cox-IV, pS6 kinase, ERK, AMPKα1)
# Description: FIG. 3. Western blot analysis illustrates a decrease in Cox-IV and pS6 kinase, and activation of ERK and AMPKα1 (C).
# FIG. 4. EOC stem cells were treated with compound 1 in the presence or absence of the ROS scavenger, MnTBAP. Western blot analysis (FIG. 2) illustrates the effect of MnTBAP pretreatment on mitochondrial ERK, pS6 and β-actin activation. […] Compound 1-induced ROS production leads to ERK activation and loss of mitochondrial membrane potential (MMP).
# FIG. 8. Western blot analysis illustrates that treatment of ovarian cancer stem cells with compound 1 in the presence of FBS was able to prevent compound 1 induced decrease in pS6 kinase.
# as §1, §3, §2
# [5] = test system: CD44+/MYD88+ epithelial ovarian cancer (EOC) stem cells; assay: Flow cytometry with MitoSox dye, mitochondrial superoxide; settings: 10 μg/mL, designated times
# Description: FIG. 1. EOC stem cells were treated with 10 μg/ml compound 1 at designated times. Flow cytometry analysis (FIG. 1) illustrates the increased levels of mitochondrial superoxide using MitoSox dye.
# as §1
# [6] = in the presence of 10% fetal bovine serum (FBS)
smiles,measurement,setting,value
"COc1ccc(C2c3ccc(O)c(C)c3OCC2c2ccc(O)cc2)cc1 (stereo not drawn) [compound 1, 3-(4-hydroxyphenyl)-4-(4-methoxyphenyl)-8-methylchroman-7-ol]",mitochondrial function,ovarian cancer stem cell,significantly inhibits mitochondrial function
same,ADP level,"[1]; 10 μg/mL, after 2 and 4 hours of treatment",accumulated ADP
same,ATP production,"[1]; 10 μg/mL, after 2 and 4 hours of treatment, p<0.0001 compared to control",decrease in ATP production
same,ATP loss,[1]; [6],Abrogation of ATP loss
same,mitochondrial Bax (proapoptotic Bcl2 family member),"EOC stem cells [2]; compound 1 alone, mitochondrial fractions",upregulates
same,compound 1-induced upregulation of mitochondrial Bax,EOC stem cells [2]; pre-treatment with U0126 followed by compound 1,prevented compound 1-induced upregulation
same,percentage of cells that lost mitochondrial membrane potential,EOC stem cells [3]; compound 1 alone,59%
same,percentage of cells that lost mitochondrial membrane potential,EOC stem cells [3]; pre-treated with MEK inhibitor U0126 (10 μM) for 1 hour before compound 1,23%
same,Cox-IV protein level (Western blot),EOC stem cells [4]; 10 μg/mL,decreases activation
same,activation of AMPKα1 (Western blot),EOC stem cells [4]; 10 μg/mL,increases activation
same,activation of ERK (Western blot),EOC stem cells [4]; 10 μg/mL,increases activation
same,activation of pS6 kinase (Western blot),EOC stem cells [4]; 10 μg/mL,decreases activation
same,compound 1-induced decrease in pS6k,EOC stem cells [4]; [6],prevented compound 1-induced decrease in pS6k
same,compound 1-induced activation of mitochondrial ERK,EOC stem cells [4]; in the presence of ROS scavenger MnTBAP (500 μM),MnTBAP inhibited compound 1-induced activation of mitochondrial ERK
same,mitochondrial superoxide (MitoSox fluorescence),[5],increase in mitochondrial superoxide

# Source: US20120251630A1, “REMISSION THERAPY OF CANCER WITH ISOFLAVONOIDS” (MARSHALL EDWARDS, INC., priority 2011, published 2012)
